# Experimental data reported in US20090055964A1, “MPO1 GENE AND PROTEIN AND METHODS OF USE” (priority 2006, published 2009).
# What was measured:
# [1] = biological target: T1, recombinant TRX-NtMPO1 fusion protein (Nicotiana tabacum, UniProt A0A1S4BDC4); assay: spectrophotometric amine oxidase assay of recombinant TRX-NtMPO1 with diamine substrates; conditions: for Vmax: substrate kinetics, Lineweaver-Burk plots, three independent extracts
# T1 sequence (A0A1S4BDC4 1-790): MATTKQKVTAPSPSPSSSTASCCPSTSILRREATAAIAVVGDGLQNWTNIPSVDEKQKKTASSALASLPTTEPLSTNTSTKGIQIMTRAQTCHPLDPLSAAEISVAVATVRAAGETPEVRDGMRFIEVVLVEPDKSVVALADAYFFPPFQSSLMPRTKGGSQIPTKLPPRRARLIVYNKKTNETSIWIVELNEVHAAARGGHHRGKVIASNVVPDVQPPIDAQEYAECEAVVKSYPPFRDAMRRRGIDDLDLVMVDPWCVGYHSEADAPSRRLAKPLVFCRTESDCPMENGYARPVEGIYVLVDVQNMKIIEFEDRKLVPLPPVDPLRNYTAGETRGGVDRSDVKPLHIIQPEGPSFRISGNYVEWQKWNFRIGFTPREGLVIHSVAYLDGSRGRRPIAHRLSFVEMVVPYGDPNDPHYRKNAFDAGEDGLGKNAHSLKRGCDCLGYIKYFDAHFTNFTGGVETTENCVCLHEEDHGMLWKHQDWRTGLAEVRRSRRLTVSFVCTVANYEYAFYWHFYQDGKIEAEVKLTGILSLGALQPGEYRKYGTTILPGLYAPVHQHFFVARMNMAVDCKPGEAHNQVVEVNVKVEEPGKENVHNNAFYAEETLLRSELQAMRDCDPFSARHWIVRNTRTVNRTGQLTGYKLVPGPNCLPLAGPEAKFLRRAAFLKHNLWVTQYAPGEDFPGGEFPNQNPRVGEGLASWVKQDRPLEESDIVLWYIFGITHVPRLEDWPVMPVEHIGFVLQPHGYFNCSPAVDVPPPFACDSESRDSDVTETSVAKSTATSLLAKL
# Description: This modified fragment was cloned into pCR2.1 (Invitrogen) to yield pJGJ367. […] Finally, a 2.6 Kb NcoI-XhoI (partial) fragment was cut from pJGJ369 and ligated into pET32a+ similarly cut, to yield pJGJ389. Plasmid pJGJ389 was transformed into the Rosetta E. coli strain (Novagen, Madison, Wis.) for expression of a recombinant […] protein. Mid-log phase Rosetta/pJGJ389 cells were cultured overnight in LB media supplemented with 100 ug/ml Ampicillin, 30 ug/ml Chloramphenicol, and 0.2 mM isopropyl-β-D-thiogalactoside at 18° C. at 250 rpm. The cells were pelleted, lysed, and the native protein extract incubated with Ni-NTA superflow resin, and the TRX-MPO1 was eluted as per manufacture's instructions (Qiagen, Valencia, Calif.). The TRX-MPO1 enriched extract was mixed 1:1 (v:v) with 100% glycerol and stored at −20° C.
# [2] = test system: NCCCN; assay: purified protein, by the assay type; conditions: other: substrate kinetics, Lineweaver-Burk plots, three independent extracts; 18.0 °C
# Description: Mid-log phase Rosetta/pJGJ389 cells were cultured overnight in LB media supplemented with 100 ug/ml Ampicillin, 30 ug/ml Chloramphenicol, and 0.2 mM isopropyl-β-D-thiogalactoside at 18° C. at 250 rpm. The cells were pelleted, lysed, and the native protein extract incubated with Ni-NTA superflow resin, and the TRX-MPO1 was eluted as per manufacture's instructions (Qiagen, Valencia, Calif.). The TRX-MPO1 enriched extract was mixed 1:1 (v:v) with 100% glycerol and stored at −20° C. […] Background-corrected diamine oxidase rates were graphed as Lineweaver-Burk plots in order to estimate the Vmax and Km of the recombinant TRX -NtMPO1 fusion protein isolated from three independent extracts.
compound,measurement,setting,value
NCCCCCN [cadaverine],Vmax,[1],0.0003 ± 0.00004 mM/min
recombinant TRX-NtMPO1 fusion protein (Nicotiana tabacum),Km,[2],350 ± 30 µM
same,Vmax,[2],0.7 µM/min
same,Vmax/Km,[2],0.00193 min⁻¹
"NCCCN [1,3-diamine propane, 1,3-diaminepropane]",oxidative deamination as substrate by recombinant TRX-MPO1,"[1]; qualitative, different kinetics for each substrate",oxidatively deaminated
NCCCCN [putrescine],Vmax,[1],0.0007 ± 0.0001 mM/min
"CNCCCCN [N-methylputrescine, N-methyl-1,4 diaminebutane]",Vmax,[1],0.0017 ± 0.0001 mM/min
